This is an account of results in US4005206A, “[9H]-Pyrido-[3,4-b]-indoles” (Roussel-UCLAF, priority 1976, dated 1977).

In one data set the test system is amytal-induced sleep. Kind of data set: Potentialization of sleeping time (amytal). It counts as in vivo, female mice. The note with it: for minimal effective dose: Mus musculus, ip, 1 h, i.p. one hour before 80 mg/kg i.v. amytal, female mice 18 to 22 g, 25° C, read-out: DE50 (minimum dose for significantly prolonging the duration of sleep); for neurosedative activity (in words): conclusion from Table II. The method, then: 2. Potentialization of sleeping time
This test was effected with amytal (5-ethyl-5-isoamyl-barbituric acid) on groups of female mice weighing 18 to 22 g and held at 25° C for the duration of the test. The test products were administered intraperitoneally at different does one hour before the intravenous administration of 80 mg/kg of amytal and the time of sleep was recorded as the suspending time for the straighting reflex of the mice as negative.

For data set [1], the system named is rigidity provoked by reserpine. Briefly: Antagonism to reserpinic rigidity (electromyogram). It is filed as in vivo, rats. On the set-up: key to Antagonism to reserpine rigidity: The results were expressed by an increasing number of + sign; ++: The results were expressed by an increasing number of + sign. The note with it: for Antagonism to reserpine rigidity: 20 mg/kg i.v., 30 minutes after 10 mg/kg i.v. reserpine, EMG, rats; for activity against reserpine rigidity (in words): dose of 20 mg/kg. The method, then: 3. Antagonism to reserpinic rigidity
This test was effected on rats using the procedure of Jurna I. [Arch. Pharmak. Exp. Path., Vol. 260 (1968), p. 80-88] wherein the electromyogram (EMG) caused by a dorsiflexion due to the shock of the foot by electrodes placed against the muscles of the front portion of the rear paw of the animal. A dose of 10 mg/kg of reserpine was intravenously administered and then 30 minutes later when the hypertonicity of the muscle was the maximum, the test product was intravenously administered at a dose of 20 mg/kg. The inhibition was observed by the electromyogram showing the antagonism exercised by the test product against the rigidity provoked by reserpine.

Data set [2] relates to serotonine-provoked contraction of guinea pig ileon. Kind of data set: Antiserotonine activity on isolated ileon. The note with it: for IC50: Cavia porcellus, isolated guinea pig ileon, Tyrode liquid 37° C, contact time one minute, read-out: IC50 (approximate 50% inhibiting concentration, contraction by serotonine). It counts as cell-based. As for the experimental part: Serotonine provokes contraction of a certain number of smooth muscles and especially guinea pig ileon and antiserotonine activity is determined in vitro on the isolated ileon of the guinea pig immersed in oxygenated Tyrode liquid at 37° C. The activity of the antagonist is measured by the concentration thereof which after a contact time of one minute diminishes by about 50% the contraction of a portion of ileon when a standard dose of serotonine is added to the Tyrode liquid. The approximate 50% inhibiting concentration (IC50) was determined in micrograms per ml and the results are in Table IV.

A short description of a further data set: Acute toxicity. Particulars: mouse, in vivo, ip; intraperitoneal, mice, mortality 48 hours later; read-out: Approximate DL50 (50% lethal dose). As for the experimental part:
The 50% lethal dose (DL50) was determined by intraperitoneal administration of the products to mice and the mortality was determined 48 hours later.

The subject of data set [3] is platelet aggregation caused by collagen. Kind of data set: Platelet aggregation caused by collagen (turbidimetric method of Born). The note with it: for IC50: Oryctolagus cuniculus, rabbit platelet-rich plasma, 40 μg/ml collagen, read-out: IC50 (dose which inhibited by 50% the aggregation caused by collagen); for activity against platelet aggregation caused by collagen (in words): conclusion in words. It counts as cell-based, rabbit. As for the experimental part: Platelet aggregation is effected with a Mustard aggregometer using the turbidimetric method of Born [J. Physiol., Vol. 168 (1963), p. 178-195] which consists of measuring the variation in transmission of a light ray or beam passing through a tube containing a plasma rich in platelets. When the aggregates are formed, the amount of light transmitted is greater and the optical density is diminished. The platelets used are obtained from rabbit plasma and the agent inducing the aggregation was 40 μg/ml of collagen. The 50% inhibiting concentration (IC50) was determined for each product which was the dose which inhibited by 50% the aggregation caused by collagen.

Data set [4] has as its system toxicity of the amphetamine group (dexamphetamine sulfate). Kind of data set: Antagonism toward amphetamine type (dexamphetamine-induced mortality). It counts as in vivo, male mice. The note with it: for ED50: Mus musculus, ip, i.p. one hour before 15 mg/kg i.p. dexamphetamine sulfate, mortality at 4 hours, male mice, read-out: DE50 (dose which reduced by 50% the number of dead animals); for antagonism with respect to the toxicity of the amphetamine group (in words): conclusion from Table I. The method, then:
1. Antagonism toward amphetamine type
The antagonism of the compounds with regard to amphetaminic group was studied on groups of 10 male mice which received intraperitoneally 15 mg/kg of dexamphetamine sulfate one hour after the intraperitoneal administration of the test compound.
The mortality per group was totally counted 4 hours after the administration of dexamphetamine sulfate and the DE50 dose which reduced by 50% the number of dead animals was determined as shown in Table I.

≈ marks a conversion by molar mass, not a printed value. Structures can show the parent of a compound that is named as a salt.

On to `COc1ccc2[nH]cc(CC3NCCc4c3[nH]c3ccc(OC)cc43)c2c1` (centres unmarked) [Example 1, 1-(5'-methoxy-3'-indolyl-methyl)-6-methoxy-1,2,3,4-tetrahydro[9H]-pyrido-[3,4-b]-indole-hydrochloride], for which, in the data set with amytal-induced sleep, the minimal effective dose was 10 mg/kg and the “neurosedative activity (in words)” value is listed as “very important neurosedative activity”. Further, in data set [1], the “Antagonism to reserpine rigidity” value was “++” and the “activity against reserpine rigidity (in words)” value is “very active”. In addition, the IC50 in data set [2] was found to be 0.5 µg/mL. Moreover, the LD50 at 48 h in “Acute toxicity” is 150 mg/kg.

On to `COc1ccc2[nH]cc(CC3NCCc4c3[nH]c3ccc(O)cc43)c2c1` (centres unmarked) [Example 2, 1-(5'-methoxy-3'-indolyl-methyl)-6-hydroxy-1,2,3,4-tetrahydro[9H]-pyrido-[3,4-b]-indole], for which the minimal effective dose in the data set on amytal-induced sleep is 50 mg/kg. In addition, in data set [2], the IC50 was 0.5 to 1 µg/mL (≈ 1.44 to 2.88 µM). For the same molecule, the LD50 at 48 h in “Acute toxicity” stood at 200 mg/kg.

`COc1ccc2[nH]c3c(c2c1)CCNC3Cc1c[nH]c2ccccc12` (centres unmarked) [Example 3, 1-(3'-indolylmethyl)-6-methoxy-1,2,3,4-tetrahydro-[9H]-pyrido-[3,4-b]-indole hydrochloride]: in data set [1], the “Antagonism to reserpine rigidity” value is on record as “+”. Moreover, the IC50 in data set [2] was found to be 1 µg/mL. Moreover, the LD50 at 48 h in the data set “Acute toxicity” came to 350 mg/kg.

Take `Clc1ccc2[nH]cc(CC3NCCc4c3[nH]c3ccccc43)c2c1` (centres unmarked) [Example 4, 1-(5'-chloro-3'-indolyl-methyl)-1,2,3,4-tetrahydro-[9H]-pyrido-[3,4-b]-indole hydrochloride]: the minimal effective dose with amytal-induced sleep is 50 mg/kg. Moreover, the LD50 at 48 h in “Acute toxicity” worked out at 500 mg/kg.

In the case of `COc1ccc2[nH]cc(CC3NCCc4c3[nH]c3ccccc43)c2c1` (centres unmarked) [Example 5, 1-(5'-methoxy-3'-indolyl-methyl)-1,2,3,4-tetrahydro-[9H]pyrido-[3,4-b]-indole-hydrochloride], in the data set with amytal-induced sleep, the minimal effective dose amounted to 50 mg/kg. The “Antagonism to reserpine rigidity” value in data set [1] is listed as “++”. In addition, the “activity against reserpine rigidity (in words)” value in data set [1] is recorded as “very active”. Moreover, the results for the IC50 in data set [2] and in data set [3] were 2 µg/mL and roughly 100 µM, respectively. The LD50 at 48 h in the data set “Acute toxicity” turned out to be 150 mg/kg.

Regarding `Oc1ccc2[nH]c3c(c2c1)CCNC3Cc1c[nH]c2ccccc12` (centres unmarked) [Example 6, 6-hydroxy-1-(3'-indolyl-methyl)-1,2,3,4-tetrahydro [9H]pyrido-[3,4-b]-indole-fumarate], in data set [4], the ED50 turned out to be 35 mg/kg and the “antagonism with respect to the toxicity of the amphetamine group (in words)” value is “important antagonism”. Also, the minimal effective dose in the data set on amytal-induced sleep came out at 20 mg/kg. In addition, the IC50 in data set [2] amounted to 2 µg/mL (≈ 6.3 µM). For the same molecule, the “activity against platelet aggregation caused by collagen (in words)” value in data set [3] is given as “important activity”. The LD50 at 48 h in “Acute toxicity” was 150 mg/kg.

Consider `Clc1ccc2[nH]c3c(c2c1)CCNC3Cc1c[nH]c2ccccc12` (centres unmarked) [Example 7, 6-chloro-1-(3'-indolylmethyl)-1,2,3,4-tetrahydro-[9H]-pyrido-[3,4-b]-indole], for which, in data set [4], the ED50 was 20 mg/kg and the “antagonism with respect to the toxicity of the amphetamine group (in words)” value is “important antagonism”. In the data set on amytal-induced sleep, the minimal effective dose was 10 mg/kg and the “neurosedative activity (in words)” value was “very important neurosedative activity”. In data set [2], the IC50 was 1 to 2 µg/mL (≈ 2.98 to 5.96 µM). The LD50 at 48 h in the data set “Acute toxicity” is 150 mg/kg.

In the case of `Oc1ccc2[nH]cc(CC3NCCc4c3[nH]c3ccccc43)c2c1` (centres unmarked) [Example 9, 1-(5'-hydroxy-3'-indolyl-methyl)-1,2,3,4-tetrahydro-[9H]-pyrido-[3,4-b]-indole-hydrochloride], the ED50 in data set [4] is 50 mg/kg. Moreover, the IC50 in data set [2] fell in the range of 0.1 to 0.2 µg/mL. Also, the “antiserotonine activity (in words)” value in data set [2] (conclusion in words) was “important antiserotonine activity”. Also, in data set [3], the IC50 was 1 µM and the “activity against platelet aggregation caused by collagen (in words)” value is “important activity”.

Regarding `c1ccc(COc2ccc3[nH]cc(CC4NCCc5c4[nH]c4ccc(OCc6ccccc6)cc54)c3c2)cc1` (centres unmarked) [Example 10, 1-(5'-benzyloxy-3' -indolylmethyl)-6-benzyloxy-1,2,3,4-tetrahydro-[9H]-pyrido-[3,4-b]-indole-hydrochloride], the LD50 at 48 h in “Acute toxicity” stood at 300 mg/kg.
